{"source": "patent US20010021697A1", "about": "“METHODS AND COMPOSITIONS FOR THE TREATMENT OF MAMMALIAN INFECTIONS EMPLOYING MEDICAMENTS COMPRISING HYMENOPTERA VENOM, PROTEINAGEOUS OR POLYPEPTIDE COMPONENTS THEREOF, OR ANALOGUES OF SUCH PROTEINACEOUS OR POLYPEPTIDE COMPONENTS” (priority 1987, published 2001)", "format_in_all_cases": "cell-based", "key": {"S. aureus #140A": {"test_system": "S. aureus #140A"}, "E. coli #G1880E": {"test_system": "E. coli #G1880E"}, "[1]": {"test_system": "kanamycin resistant S. aureus", "test": "Checkerboard titration assay for synergy of honeybee venom with antibiotics (OD660 growth curves)"}}, "note": "Read-outs that look alike come from different tables or passages of the source."}
{"smiles": "CC1(C)S[C@@H]2[C@H](NC(=O)[C@H](N)c3ccccc3)C(=O)N2[C@H]1C(=O)O", "note": "[AMP]", "values": [{"measurement": "MEAN A660", "setting": "S. aureus #140A; AMP = 0.05, HBV = 0, T0", "result": 0.013}, {"measurement": "MEAN A660", "setting": "S. aureus #140A; AMP = 0.05, HBV = 0, T2", "result": 0.085}, {"measurement": "MEAN A660", "setting": "S. aureus #140A; AMP = 0.05, HBV = 0, T4", "result": 0.355}, {"measurement": "MEAN A660", "setting": "S. aureus #140A; AMP = 0.05, HBV = 0, T6", "result": 0.552}, {"measurement": "MEAN A660", "setting": "S. aureus #140A; AMP = 0.05, HBV = 0, T12", "result": 0.736}, {"measurement": "MEAN A660", "setting": "S. aureus #140A; AMP = 0.05, HBV = 0, T24", "result": 0.760}, {"measurement": "MEAN A660", "setting": "S. aureus #140A; AMP = 0.05, HBV = 0, TB", "result": 0.689}, {"measurement": "MEAN A66O", "setting": "S. aureus #140A; AMP = 0.1, HBV = 0, T0", "result": 0.013}, {"measurement": "MEAN A66O", "setting": "S. aureus #140A; AMP = 0.1, HBV = 0, T2", "result": 0.085}, {"measurement": "MEAN A66O", "setting": "S. aureus #140A; AMP = 0.1, HBV = 0, T4", "result": 0.257}, {"measurement": "MEAN A66O", "setting": "S. aureus #140A; AMP = 0.1, HBV = 0, T6", "result": 0.248}, {"measurement": "MEAN A66O", "setting": "S. aureus #140A; AMP = 0.1, HBV = 0, T8", "result": 0.155}, {"measurement": "MEAN A66O", "setting": "S. aureus #140A; AMP = 0.1, HBV = 0, T12", "result": 0.095}, {"measurement": "MEAN A66O", "setting": "S. aureus #140A; AMP = 0.1, HBV = 0, T24", "result": 0.347}, {"measurement": "MEAN A660", "setting": "S. aureus #140A; AMP = 0.2, HBV = 0, T0", "result": 0.013}, {"measurement": "MEAN A660", "setting": "S. aureus #140A; AMP = 0.2, HBV = 0, T2", "result": 0.085}, {"measurement": "MEAN A660", "setting": "S. aureus #140A; AMP = 0.2, HBV = 0, T4", "result": 0.202}, {"measurement": "MEAN A660", "setting": "S. aureus #140A; AMP = 0.2, HBV = 0, T6", "result": 0.112}, {"measurement": "MEAN A660", "setting": "S. aureus #140A; AMP = 0.2, HBV = 0, T8", "result": 0.052}, {"measurement": "MEAN A660", "setting": "S. aureus #140A; AMP = 0.2, HBV = 0, T12", "result": 0.037}, {"measurement": "MEAN A660", "setting": "S. aureus #140A; AMP = 0.2, HBV = 0, T24", "result": 0.042}, {"measurement": "MEAN A66O", "setting": "S. aureus #140A; AMP = 0.4, HBV = 0, T0", "result": 0.013}, {"measurement": "MEAN A66O", "setting": "S. aureus #140A; AMP = 0.4, HBV = 0, T2", "result": 0.085}, {"measurement": "MEAN A66O", "setting": "S. aureus #140A; AMP = 0.4, HBV = 0, T4", "result": 0.191}, {"measurement": "MEAN A66O", "setting": "S. aureus #140A; AMP = 0.4, HBV = 0, T6", "result": 0.110}, {"measurement": "MEAN A66O", "setting": "S. aureus #140A; AMP = 0.4, HBV = 0, T8", "result": 0.048}, {"measurement": "MEAN A66O", "setting": "S. aureus #140A; AMP = 0.4, HBV = 0, T12", "result": 0.027}, {"measurement": "MEAN A66O", "setting": "S. aureus #140A; AMP = 0.4, HBV = 0, T24", "result": 0.027}, {"measurement": "MEAN A660", "setting": "E. coli #G1880E; AMP = 0.5, HBV = 0, T0", "result": 0.015}, {"measurement": "MEAN A660", "setting": "E. coli #G1880E; AMP = 0.5, HBV = 0, T2", "result": 0.084}, {"measurement": "MEAN A660", "setting": "E. coli #G1880E; AMP = 0.5, HBV = 0, T4", "result": 0.600}, {"measurement": "MEAN A660", "setting": "E. coli #G1880E; AMP = 0.5, HBV = 0, T6", "result": 1.001}, {"measurement": "MEAN A660", "setting": "E. coli #G1880E; AMP = 0.5, HBV = 0, T8", "result": 0.999}, {"measurement": "MEAN A660", "setting": "E. coli #G1880E; AMP = 0.5, HBV = 0, T12", "result": 1.085}, {"measurement": "MEAN A660", "setting": "E. coli #G1880E; AMP = 0.5, HBV = 0, T24", "result": 1.156}, {"measurement": "MEAN A660", "setting": "E. coli #G1880E; AMP = 1, HBV = 0, T0", "result": 0.015}, {"measurement": "MEAN A660", "setting": "E. coli #G1880E; AMP = 1, HBV = 0, T2", "result": 0.084}, {"measurement": "MEAN A660", "setting": "E. coli #G1880E; AMP = 1, HBV = 0, T4", "result": 0.538}, {"measurement": "MEAN A660", "setting": "E. coli #G1880E; AMP = 1, HBV = 0, T6", "result": 0.628}, {"measurement": "MEAN A660", "setting": "E. coli #G1880E; AMP = 1, HBV = 0, T8", "result": 0.493}, {"measurement": "MEAN A660", "setting": "E. coli #G1880E; AMP = 1, HBV = 0, T12", "result": 0.475}, {"measurement": "MEAN A660", "setting": "E. coli #G1880E; AMP = 1, HBV = 0, T24", "result": 0.504}, {"measurement": "MEAN A660", "setting": "E. coli #G1880E; AMP = 2, HBV = 0, T0", "result": 0.015}, {"measurement": "MEAN A660", "setting": "E. coli #G1880E; AMP = 2, HBV = 0, T2", "result": 0.084}, {"measurement": "MEAN A660", "setting": "E. coli #G1880E; AMP = 2, HBV = 0, T4", "result": 0.428}, {"measurement": "MEAN A660", "setting": "E. coli #G1880E; AMP = 2, HBV = 0, T12", "result": 0.136}, {"measurement": "MEAN A660", "setting": "E. coli #G1880E; AMP = 2, HBV = 0, T24", "result": 0.647}, {"measurement": "MEAN A660", "setting": "E. coli #G1880E; AMP = 4, HBV = 0, T0", "result": 0.015}, {"measurement": "MEAN A660", "setting": "E. coli #G1880E; AMP = 4, HBV = 0, T2", "result": 0.084}, {"measurement": "MEAN A660", "setting": "E. coli #G1880E; AMP = 4, HBV = 0, T4", "result": 0.158}, {"measurement": "MEAN A660", "setting": "E. coli #G1880E; AMP = 4, HBV = 0, T6", "result": 0.063}, {"measurement": "MEAN A660", "setting": "E. coli #G1880E; AMP = 4, HBV = 0, T12", "result": 0.055}, {"measurement": "MEAN A660", "setting": "E. coli #G1880E; AMP = 4, HBV = 0, T24", "result": 0.056}, {"measurement": "MEAN A660", "setting": "[1]; AMP = 0.05, HBV = 0, T0", "result": 0.020}, {"measurement": "MEAN A660", "setting": "[1]; AMP = 0.05, HBV = 0, T2", "result": 0.064}, {"measurement": "MEAN A660", "setting": "[1]; AMP = 0.05, HBV = 0, T4", "result": 0.230}, {"measurement": "MEAN A660", "setting": "[1]; AMP = 0.05, HBV = 0, T6", "result": 0.338}, {"measurement": "MEAN A660", "setting": "[1]; AMP = 0.05, HBV = 0, T8", "result": 0.372}, {"measurement": "MEAN A660", "setting": "[1]; AMP = 0.05, HBV = 0, T12", "result": 0.352}, {"measurement": "MEAN A660", "setting": "[1]; AMP = 0.05, HBV = 0, T24", "result": 0.461}, {"measurement": "MEAN A660", "setting": "[1]; AMP = 0.1, HBV = 0, T0", "result": 0.020}, {"measurement": "MEAN A660", "setting": "[1]; AMP = 0.1, HBV = 0, T2", "result": 0.064}, {"measurement": "MEAN A660", "setting": "[1]; AMP = 0.1, HBV = 0, T4", "result": 0.379}, {"measurement": "MEAN A660", "setting": "[1]; AMP = 0.1, HBV = 0, T6", "result": 0.156}, {"measurement": "MEAN A660", "setting": "[1]; AMP = 0.1, HBV = 0, T8", "result": 0.112}, {"measurement": "MEAN A660", "setting": "[1]; AMP = 0.1, HBV = 0, T12", "result": 0.050}, {"measurement": "MEAN A660", "setting": "[1]; AMP = 0.1, HBV = 0, T24", "result": 0.053}, {"measurement": "MEAN A660", "setting": "[1]; AMP = 0.2, HBV = 0, T0", "result": 0.020}, {"measurement": "MEAN A660", "setting": "[1]; AMP = 0.2, HBV = 0, T2", "result": 0.064}, {"measurement": "MEAN A660", "setting": "[1]; AMP = 0.2, HBV = 0, T4", "result": 0.131}, {"measurement": "MEAN A660", "setting": "[1]; AMP = 0.2, HBV = 0, T6", "result": 0.110}, {"measurement": "MEAN A660", "setting": "[1]; AMP = 0.2, HBV = 0, T8", "result": 0.073}, {"measurement": "MEAN A660", "setting": "[1]; AMP = 0.2, HBV = 0, T12", "result": 0.030}, {"measurement": "MEAN A660", "setting": "[1]; AMP = 0.2, HBV = 0, T24", "result": 0.037}, {"measurement": "MEAN A660", "setting": "[1]; AMP = 0.4, HBV = 0, T0", "result": 0.020}, {"measurement": "MEAN A660", "setting": "[1]; AMP = 0.4, HBV = 0, T2", "result": 0.064}, {"measurement": "MEAN A660", "setting": "[1]; AMP = 0.4, HBV = 0, T4", "result": 0.202}, {"measurement": "MEAN A660", "setting": "[1]; AMP = 0.4, HBV = 0, T6", "result": 0.290}, {"measurement": "MEAN A660", "setting": "[1]; AMP = 0.4, HBV = 0, T8", "result": 0.285}, {"measurement": "MEAN A660", "setting": "[1]; AMP = 0.4, HBV = 0, T12", "result": 0.271}, {"measurement": "MEAN A660", "setting": "[1]; AMP = 0.4, HBV = 0, T24", "result": 0.277}]}
